In a melting point compilation (Tetko et al.; mined from patent text by program, amines drawn as free bases though some values may be those of a salt):

SMILES	melting point
COCSc1nccn1-c1cccc(C(=O)CC(=O)Nc2cc(-c3ccccc3F)ccc2NC(=O)OC(C)(C)C)c1	83 to 86 °C
CCN1CCNC(=O)C1c1ccc(N)cc1 (centres undefined)	153 to 154 °C
CCOc1cccc(NC(=O)NC2N=C(c3ccccc3F)c3ccccc3N(CC(=O)N3CC4CCC(CC4)C3)C2=O)c1 (centres undefined)	158 to 166 °C
Cc1[nH]cnc1CSCCNC1=C([N+](=O)[O-])CN(Cc2ccccc2)CN1	177 to 180 °C
CN1Cc2ccccc2[C@H]2c3cccc4c3c(cn4C)C[C@@H]21 (relative stereo)	184 to 185 °C
CCOC(=O)/C=C/C1N(C(C)C)C(=O)c2ccccc2C1(O)c1ccc(F)cc1 (centres undefined)	220 to 221 °C
CCCCCCCCCC(=O)Nc1ccc(S(=O)(=O)Nc2nncs2)cc1	151 to 152 °C
Nc1ncc2c(n1)CCC(NC(=O)[C@@H]1CCCN1C(=O)[C@@H](CC1CCCCC1)NS(=O)(=O)Cc1ccccc1)C2 (some centres undefined)	114 to 117 °C
CCCC(=O)NC[C@@H]1C[C@H]1c1cccn2nc(C)cc12 (relative stereo)	82 to 84 °C
Cc1cc(F)ccc1C(=O)c1ccc(F)cc1C	50 to 52 °C
CCC(CC)Oc1ccc(-n2cc(C(=O)O)cn2)cc1C#N	142 to 144 °C
Cc1ccc(NC(=O)c2cccc(N3CCOCC3)c2)cc1NC(=O)c1cccc(N(C)S(C)(=O)=O)c1	208 to 209 °C
Nc1ccc(F)cc1C(=O)c1ccccc1	112 to 113 °C
O=CN(O)C(CS(=O)(=O)c1ccc(-c2ccc(C(F)(F)F)cc2)cc1)c1ccc2c(c1)OCO2 (centres undefined)	160 °C
COc1cc(NC(NC2CCC2)=C(C#N)S(=O)(=O)c2ccc(Cl)cc2)cc(OC)c1	164 °C
CC(=O)Nc1cc(Br)ccc1Sc1ccc([N+](=O)[O-])cc1[N+](=O)[O-]	194 to 196 °C
C=C1C[C@@H]2C(=O)NC(=O)[C@@H]2C1	135 to 137 °C
COC(=O)C[C@]1(C)[C@@H](O)CC[C@H]1C1CCc2cc(OC)ccc2C1 (some centres undefined)	86 to 87 °C
CC1CCc2[nH]c3ccc(Br)cc3c2C1 (centres undefined)	108 to 110 °C
COc1ccccc1CCC(C)(O)CC1CCCCN1 (centres undefined)	115 to 116 °C
CCOC(=O)Cc1cccc(-c2nc(COc3ccc(CCl)cc3OC)c(C)o2)c1	95 to 96 °C
CNC(=O)OCCOc1cc(-n2c(=O)cc(C(F)(F)F)n(C)c2=O)c(F)cc1Cl	173 to 175 °C
CC(C(O)CCC(C)(C)C)C1CCC2C3CC=C4CC(O)CCC4(C)C3CCC12C (centres undefined)	191 to 193 °C

Results, then the compound that gave them:

melting point	SMILES
80 to 81 °C	CCOC(OCC)c1cc(-n2c(=O)cc(C(F)(F)F)n(N)c2=O)ccc1Cl
155 to 157 °C	O=C(NS(=O)(=O)c1ccc(O)cc1)c1ccc(Cl)cc1Cl
148 to 150 °C	CCC(=O)NCC=C1CCc2ccc3ncoc3c21
129 to 130 °C	CCCCn1c(C)c(C)cc(NC(=O)c2ccc(F)cc2)c1=O
178 to 180 °C	O=C(O)c1cc2cc(F)c(C(F)(F)F)cc2[nH]1
125 to 130 °C	CCOC(=O)C1=C(COCCO)NC(C)=C(C(=O)OC)C1c1ccccc1Cl (centres undefined)
242 to 244 °C	Cc1[nH]n(C2CCCC2)c2nc(-c3cccc4cccnc34)nc(=O)c1-2
158 to 160 °C	CCc1nc([C@@H]2C[C@H]2c2nc3ccccc3n2C)cc(-n2nc(C)nc2C)n1 (relative stereo)
123 to 125 °C	Cc1ccc(S(=O)(=O)Nc2nc(-c3cc(F)cc(C(F)(F)F)c3)cs2)cc1
135 to 137 °C	C=C(C)COc1ccc(C(=O)C=Cc2c(Cl)cccc2Cl)c2oc3ccccc3c(=O)c12
222 to 224 °C	CCC(=O)Nc1cccc2c1C(=O)N(C1(C)CCC(=O)NC1=O)C2=O (centres undefined)
130 to 133 °C	COc1ccc(-c2cc(CO)c(=O)n(CCCc3ccc(F)cc3)n2)cc1F
132 to 135 °C	CCOC(=O)CNC(=O)Oc1c(C)n(C)ccc1=O
192 to 196 °C	CN(C(=S)n1cc(F)c(N)nc1=O)c1ccccc1
99 to 103 °C	O=C(Nc1ccc2scnc2c1C1CCN(C/C=C/c2ccc(Cl)cc2)CC1)c1ccnc(Cl)c1
177 to 178 °C	CC(C)[C@H](NC(=O)CN1CCN(CC(=O)O)C1=O)C(=O)N1CCC[C@H]1C(=O)N[C@H](C(=O)C(F)(F)F)C(C)C
166 °C	CCCCOc1cc(C=C(C)C(=O)O)ccc1-c1cccc(CNCC(=O)c2ccccc2)c1
135 to 137 °C	COC(Cn1ncc(-c2ccc(S(C)(=O)=O)cc2)c(-c2ccc(F)cc2)c1=O)c1ccccc1 (centres undefined)
99 to 101 °C	O=C1NC(=O)C(N(CC#Cc2ccc(F)cc2)c2ccc(CCNCC(O)COc3ccc(OCc4ccccc4)cc3)cc2)S1 (centres undefined)
> 275 °C	CCOC(=O)CCc1ccc2[nH]c(-c3cccnc3)c(C)c2c1
135 to 136 °C	O=[N+]([O-])c1ccc(N=Nc2ccc(N(CC3CO3)CC3CO3)cc2)cc1 (centres undefined)
215 to 216 °C	NC(=O)c1ccc(-c2ccc(O)cc2)cc1Cl
267 to 270 °C	COc1ccc(-c2c(NC(=O)Nc3ccc(F)cc3F)c(=O)oc3ccc(Cl)cc23)cc1OC
233 to 235 °C	CSc1sc(-c2nnn(C)n2)c2c1C(=O)CC(C)(C)C2
124 to 132 °C	Cc1c(C)c(O)c(CC[C@](C)(O)CO)c(C)c1O
73 to 75 °C	CCNC(=O)n1nc(Oc2cc(OCC)ccc2[N+](=O)[O-])cc1C
